For 1 compound, Kd results are on record in PMC8996072, “Ag120-Mediated Inhibition of ASCT2-Dependent Glutamine Transport has an Anti-Tumor Effect on Colorectal Cancer Cells” (Frontiers in Pharmacology, 2022).

The assay has as its target T1, ASCT2 (Homo sapiens, UniProt Q15758).
T1 construct: gene SLC1A5
T1 sequence (Q15758 1-541): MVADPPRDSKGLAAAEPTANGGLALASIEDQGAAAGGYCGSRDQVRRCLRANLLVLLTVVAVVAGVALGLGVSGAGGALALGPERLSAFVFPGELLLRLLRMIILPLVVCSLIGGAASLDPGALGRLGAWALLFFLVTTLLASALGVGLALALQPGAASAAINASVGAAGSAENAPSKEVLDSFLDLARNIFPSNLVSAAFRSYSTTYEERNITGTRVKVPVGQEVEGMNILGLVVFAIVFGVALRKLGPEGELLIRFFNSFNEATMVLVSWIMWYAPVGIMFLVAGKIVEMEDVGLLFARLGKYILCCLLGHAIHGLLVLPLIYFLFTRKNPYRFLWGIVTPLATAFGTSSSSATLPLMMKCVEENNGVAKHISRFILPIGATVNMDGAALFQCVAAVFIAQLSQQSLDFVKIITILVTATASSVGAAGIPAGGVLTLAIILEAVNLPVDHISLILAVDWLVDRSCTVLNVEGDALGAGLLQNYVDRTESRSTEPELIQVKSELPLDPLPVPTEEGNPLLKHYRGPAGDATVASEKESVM
Description: SPR (Biacore T200), purified human ASCT2. It counts as binding. (In general: SPR reads the build-up and loss of mass on a sensor chip optically.)

For orientation: Kd means a measure of binding affinity in units of concentration. Higher therefore signals weaker binding. Take `N#Cc1ccnc(N2C(=O)CC[C@H]2C(=O)N(c2cncc(F)c2)[C@H](C(=O)NC2CC(F)(F)C2)c2ccccc2Cl)c1` [Ag120]: binding was put at a Kd of 5.91 µM.
